Measured values as given in paper PMC11274654 (Biomedicines, 2024).
Where two headings read alike, the source gives them in different places.

Tests used:
[1] = system: Runx2 expression in C3H10T1/2 cells; experiment: Western blotting of Runx2 in C3H10T1/2 cells; type: cell-based, murine; conditions: 10 nM
Protocol: Western blotting was performed as previously described. Briefly, whole-cell extracts (WCEs) were prepared at indicated time points using RIPA lysis buffer, and aliquots of 30 μg protein per lane were loaded and resolved on SDS-PAGE (10%), followed by blotting onto the PVDF membrane (Millipore Inc., Burlington, MA, USA). The membrane was blocked in 1% BSA, followed by immunoblotting with primary antibodies: Runx2 (ab 76956) (1:1000), pGSK (9323S) (1:1000), and GSK (9315S) (1:1000) at 4 °C overnight. Anti-rabbit HRP secondary antibody (Sigma, catalog number A0545) (1:3000) was used for Runx2, pGSK3β, and GSK3β. Bands were detected by incubating the membranes with ECL substrate (Thermo Fisher Scientific, Waltham, MA, USA) and developed on ChemiDoc (Image Quant LAS 4000, GE Healthcare, Hatfield, UK). Blots were re-probed after washing with mild stripping buffer (1.5% Glycine, 0.1% SDS, and 1% Tween 20).

[2] = system: Wnt/β-catenin signaling (TOP-Flash reporter, HEK293T cells); experiment: Wnt/β-catenin TOP-Flash reporter assay; type: cell-based; conditions: 24 h
Protocol: The effect of MTZ on β-catenin signaling was assayed using a TOP-Flash reporter plasmid that contained a minimal TA viral promoter coupled to β-catenin-responsive TCF/LEF-binding sites upstream of a firefly luciferase gene (a kind gift from Prof. Yosef Yarden, WIS, Israel). Briefly, HEK293T cells were transfected with 0.5 μg of the TOP-Flash plasmid. Additionally, the GFP-encoding plasmid, pEGFP, was transfected as a control for transfection efficiency. […] In white opaque plates, the lysate and 100 μL of luciferase assay buffer (10 mM KH2PO4, 2 mM ATP, 1 mM D-luciferin, NaCl, and MgCl2) were added, and luminescence was measured. Luminescence values were normalized by EGFP plasmid fluorescence value, and the fold-change was calculated relative to the control.

[3] = system: trabecular bone of OVX osteopenic rats; experiment: OVX osteopenia model, micro-CT of trabecular bone; type: in vivo, SD rats; conditions: 235 mg/kg oral, 3 months
Protocol: The 10-month-old (265 ± 20 g) SD rats were ovariectomized (OVX) bilaterally and left for 3 months to develop osteopenia. Ovary-intact sham-operated animals were used as a control. A live animal micro-CT was performed to confirm osteopenia, followed by dividing the animals into 3 groups: Sham + vehicle (water, oral), OVX + vehicle (water, oral), and OVX + MTZ (235 mg/kg, oral). Each group had 9 rats, and treatment were administered for 3 months. Calcein (20 mg/kg, s.c.) was injected twice before sacrificing at 10-day intervals. A SkyScan 1076 μCT scanner (SkyScan, Ltd., Kartuizersweg, Kontich, Belgium) was used to perform a high-resolution μCT for the two-dimensional and three-dimensional assessment of excised bones. The rat bone scanning process used an isotropic voxel pixel size of 18 μm and an X-ray source of 70 kV and […]. Utilizing the SkyScan Nrecon software (Version: 1.7.0.4), cross-sectional reconstruction was performed. In order to examine the trabecular region of the femur and tibia, 100 slices were used to draw the region of interest (ROI), which was limited to the secondary spongiosa region 1.5 mm from the growth plate’s distal border. The primary spongiosa and cortical bone were not included in the ROI. A ROI was drawn on 70 slices of the mid-vertebral region for the L5 vertebral study. The Batman software (Version: 1.16.8.0+), with trabecular (3D) bone analysis programs was used for quantification.

[4] = system: bone formation in femur metaphysis of OVX rats; experiment: OVX osteopenia model, dynamic bone histomorphometry (double calcein labeling); type: in vivo, SD rats; conditions: 235 mg/kg oral, 3 months
Protocol: The 10-month-old (265 ± 20 g) SD rats were ovariectomized (OVX) bilaterally and left for 3 months to develop osteopenia. Ovary-intact sham-operated animals were used as a control. A live animal micro-CT was performed to confirm osteopenia, followed by dividing the animals into 3 groups: Sham + vehicle (water, oral), OVX + vehicle (water, oral), and OVX + MTZ (235 mg/kg, oral). Each group had 9 rats, and treatment were administered for 3 months. Calcein (20 mg/kg, s.c.) was injected twice before sacrificing at 10-day intervals.
Two calcein injections were spaced ten days apart for double calcein labeling to perform dynamic histomorphometric assessments. A previously published protocol was used to calculate the bone formation rate/total bone surface (BFR/BS), mineralizing surface/bone surface (MS/BS), and mineral apposition rate (MAR).

[5] = Pharmacokinetic study, s.c., plasma LC-MS/MS; type: in vivo; conditions: rats, 40 mg/rat s.c.
Protocol: Mass spectrometric detections were carried out using an AB Sciex 4000 QTRAP LC-MS/MS, Redwood City, CA, USA) instrument fitted with an electrospray ionization source. Separation was conducted through X Bridge^TM Shield RP 18 (Waters, MA, USA) (5 µm, 4.6 × 50 mm) column. […] The ion spray voltage was set at 4500 V. […] The MS was operated in the ESI positive-ion mode, and the detection of the ions was performed in the multiple reaction monitoring (MRM) mode, monitoring the transition of m/z 172.06 precursor ion [M + H]+ to the m/z 128.08 product ion for IS and m/z 236.95 precursor ion [M + H]+ to the m/z 194.04 product ion for compound, respectively. After overnight fasting, the animals were divided into two groups (n = 4) based on the treatment: […] An MTZ suspension was prepared in water. Blood samples were collected at predetermined time points (0.25 to 48 h). […] To extract MTZ from plasma samples, the protein precipitation method was used. In this method, plasma samples (50 μL) were taken (50 ng/mL of carbamazepine (CBZ) as the internal standard) and vortexed at 2000 rpm for 10 min. Subsequently, the samples were centrifuged at 10,000 rpm for 10 min. The supernatant (100 µL) was taken for LC-MS/MS analysis. Data acquisition and quantitation were performed using analyst software. The PK parameters were determined using the Phoenix™ 6.3 WinNonlin (Pharsight Corporation, Mountain View, CA, USA) software as a noncompartmental model approach.

[6] = femur and tibia metaphyses, OVX rats
[7] = proximal femur and tibia metaphyses, OVX rats

Q: With `Cc1ncc([N+](=O)[O-])n1CCO` [Metronidazole] as the compound, how does the Runx2 expression [1] read?
A: increased

Q: What about the TOP-Flash reporter activity [2] of the same compound?
A: increased

Q: And the “Trabecular bone parameters at vertebra (L5)” value ([3]; L5, OVX rats)?
A: failed to restore

Q: What about the “Trabecular number (Tb.N)” value [3, 6] of the same compound?
A: significant enhancement

Q: What about the “Trabecular spacing (Tb.sp)” value [3, 6] of the same compound?
A: restored trabecular spacing (Tb.sp) to sham levels

Q: What about the “Trabecular thickness (Tb.Th)” value [3, 6] of the same compound?
A: complete restoration

Q: And the BMD [3, 7]?
A: significantly increased

Q: What about the “Bone volume (BV/TV)” value [3, 7] of the same compound?
A: significantly increased

Q: What about the BFR [4] of the same compound?
A: reversed all parameters to sham levels

Q: What about the MAR [4] of the same compound?
A: reversed all parameters to sham levels

Q: And the MS/BS [4]?
A: reversed all parameters to sham levels

Q: What about the MRT ([5]; plasma, sc) of the same compound?
A: 7.63 ± 0.3 h

Q: And the AUC ([5]; plasma, sc, read-out: Area under the curve (AUC)0–last)?
A: 206 ± 7.05 µg·h/mL

Q: And the Cmax ([5]; plasma, sc, read-out: Maximum concentration (Cmax))?
A: 23000 ± 870 ng/mL

Q: What about the Cl [5] of the same compound?
A: 13 ± 0.5 mL/min/kg

Q: What about the Vd [5] of the same compound?
A: 4.91 ± 0.15 L/kg

Q: And the AUC(0-inf) ([5]; sc, plasma)?
A: 206 ± 7.05 µg·h/mL

Q: What about the Tmax ([5]; sc, plasma) of the same compound?
A: 1.75 ± 0.25 h

Q: And the half-life ([5]; sc, plasma)?
A: 4.39 ± 0.26 h

Q: What about the Cmax ([5]; sc, plasma, read-out: Cmax) of the same compound?
A: 23000 ± 870 ng/mL
